Experiments:
Experiment in all cases: Drug sensitivity of clinical isolated strain
ECO-2: E. coli 2219# = assay type: cell-based, Escherichia coli; conditions: ECO-2 (Table 3)
[1] = tested on: ECL-1: Enterobacter cloacae 0431#; assay type: cell-based; conditions: ECL-1 (Table 3)
[2] = tested on: KP-1: Klebsiella pneumonia subsp. pneumonia 13#; assay type: cell-based; conditions: KP-1 (Table 3)
[3] = tested on: AB-1: Acinetobacter baumannii H#; assay type: cell-based
[4] = tested on: KP-2: K. pneumonia subsp. pneumonia 0322#; assay type: cell-based, Klebsiella pneumonia
[5] = tested on: PA-2: P. aeruginose 0009#; assay type: cell-based, Pseudomonas aeruginosa; conditions: PA-2 (Table 3)
[6] = tested on: ECO-1: Escherichia coli 1139#; assay type: cell-based
AB-2: A. baumannii 0361# = assay type: cell-based, Acinetobacter baumannii; conditions: AB-2 (Table 3)
ECO-3: E. coli ZY-1 = assay type: cell-based, Escherichia coli
ECL-2: E. cloacae 2301# = assay type: cell-based, Enterobacter cloacae
[7] = tested on: PA-1: Pseudomonas aeruginose 1298#; assay type: cell-based, Pseudomonas aeruginosa
Further: key: R: resistant; S: sensitive.

Molecule	Drug sensitivity (ECO-2: E. coli 2219#)	Drug sensitivity [1]	Drug sensitivity [2]	Drug sensitivity ([3]; AB-1 (Table 3))	Drug sensitivity ([3]; AB-1 (table of Example 3))	Drug sensitivity ([4]; KP-2 (Table 3))	Drug sensitivity ([4]; KP-2 (table of Example 3))	Drug sensitivity [5]	Drug sensitivity ([6]; ECO-1 (Table 3))	Drug sensitivity ([6]; ECO-1 (table of Example 3))	Drug sensitivity (AB-2: A. baumannii 0361#)	Drug sensitivity (ECO-3: E. coli ZY-1; E. coli ZY-1 (Table 7))	Drug sensitivity (ECO-3: E. coli ZY-1; ECO-3 (Table 3))	Drug sensitivity (ECL-2: E. cloacae 2301#; ECL-2 (Table 3))	Drug sensitivity (ECL-2: E. cloacae 2301#; ECL-2 (table of Example 3))	Drug sensitivity ([7]; PA-1 (Table 3))	Drug sensitivity ([7]; PA-1 (table of Example 3))
NCC[C@H](O)C(=O)N[C@@H]1C[C@H](N)[C@@H](O[C@H]2O[C@H](CN)[C@@H](O)[C@H](O)[C@H]2O)[C@H](O)[C@H]1O[C@H]1O[C@H](CO)[C@@H](O)[C@H](N)[C@H]1O [Amikacin]	S	S	R	R	R	S	S	R	S	S	R	S	S	S	S	S	S
CC1(C)S[C@@H]2[C@H](NC(=O)[C@H](N)c3ccccc3)C(=O)N2[C@H]1C(=O)O [Ampicillin]	R	–	R	R	R	R	R	R	S	S	R	S	S	–	–	R/S	R/S
C[C@H]1[C@H](NC(=O)/C(=N\OC(C)(C)C(=O)O)c2csc(N)n2)C(=O)N1S(=O)(=O)O [Aztreonam]	R	R	–	R	R	–	–	R	R	R	R	S	S	R	R	R	R
Cc1nnc(SCC2=C(C(=O)O)N3C(=O)[C@@H](NC(=O)Cn4cnnn4)[C@H]3SC2)s1 [Cefazolin]	R	–	R	R	R	R	R	R	R	R	R	S	S	–	–	R	R
CO/N=C(\C(=O)N[C@@H]1C(=O)N2C(C(=O)[O-])=C(C[N+]3(C)CCCC3)CS[C@H]12)c1csc(N)n1 [Cefepime]	R	R	R	R	R	R	R	R	R	R	R	S	S	R	R	R	R
CO/N=C(\C(=O)N[C@@H]1C(=O)N2C(C(=O)O)=C(COC(C)=O)CS[C@H]12)c1csc(N)n1 [Cefotaxime]	R	R	R	R	R	R	R	R	R	R	R	S	S	R	R	R	R
CC(C)(O/N=C(\C(=O)N[C@@H]1C(=O)N2C(C(=O)[O-])=C(C[n+]3ccccc3)CS[C@H]12)c1csc(N)n1)C(=O)O [Ceftazidime]	R	R	R	R	R	R	R	R	R/S	R/S	R	S	S	R	R	R	R
O=C(N[C@H](CO)[C@H](O)c1ccc([N+](=O)[O-])cc1)C(Cl)Cl [Chloramphenicol]	S	R	R	R	R	R	R	R	S	S	R	S	S	R	R	–	–
C[C@@H](O)[C@H]1C(=O)N2C(C(=O)O)=C(SCCN=CN)C[C@H]12 [Imipenem]	S	S	R	R	R	S	S	–	S	S	R	S	S	R	R	S	S
C[C@H]1COc2c(N3CCN(C)CC3)c(F)cc3c(=O)c(C(=O)O)cn1c23 [Levofloxacin]	R	R	R	R	R	R	R	R	R	R	R	S	–	R	R	R	R
CC1(C)[C@H](C(=O)O)N2C(=O)C[C@H]2S1(=O)=O [Sulbactam]	R	–	R	R	R	R	R	–	R/S	R/S	–	S	S	–	–	–	–
Nc1ccc(S(N)(=O)=O)cc1 [Sulfanilamide]	R	R	–	–	–	–	–	R	R	R	S	R	R	R	R	R	R
Polymyxin	–	R	–	S	S	–	–	S	–	–	S	–	–	S	S	S	S

From US10653717B2, “Antibiotic compositions” (priority 2016, dated 2020)
